Results taken from patent US20100172854A1, “ANTIBACTERIAL FORMULATIONS” (priority 2007, published 2010).
≈ marks a conversion by molar mass, not a printed value.

Assays:
[1] = tested on: Streptococcus mutans ATCC 25175; assay: MBC assay; format: cell-based
Procedure: (§1) The S. mutans strains were cultured and maintained on Wilkins-Chalgren Anaerobe Medium (agar and broth) at pH 7.0 supplemented with 1 g/L glucose; all cultures were incubated at 37° C. for 48 h in an atmosphere containing 5% CO2.
(§2) This assay, normally carried out after an MIC assay, determines the minimum concentration of a compound that is lethal to the micro-organism being tested.
(§3) These samples were then individually sub-cultured on antibiotic-free agar medium, under the incubation conditions described above. Following incubation they were examined visually for microbial growth.

[2] = tested on: Streptococcus mutans ATCC 35668; assay: MBC assay; format: cell-based
Procedure: as §1, §2, §3

[3] = tested on: Propionibacterium acnes NCTC 737; assay: MIC assay; format: cell-based; conditions: Cutibacterium acnes, NCTC737; P. acnes NCTC 737
Procedure: (§4) The propionibacteria were cultured and maintained on Wilkins-Chalgren Anaerobe Medium (agar and broth) at pH 6.0; all cultures were incubated anaerobically at 37° C. for 72 hours.
(§5) This is a standard international method for quantitatively assessing the antimicrobial activity of a compound in a liquid medium. The method used a sterile 96-well microtitre plate, capable of holding about 200 μl of liquid per well. The wells contained liquid culture medium and ranges of decreasing concentrations of the relevant test compound in doubling dilutions (e.g. 1000, 500, 250, 125 . . . μg/ml, etc. down to 0.49 μg/ml). The culture media were as described above.
(§6) The wells were inoculated with a liquid suspension of freshly grown micro-organism and incubated under the conditions described above. After incubation, the microtitre plate was examined visually (with the aid of a light box) for cloudiness in each well, which would indicate microbial growth. The MIC value was recorded as the lowest concentration of test compound required to inhibit microbial growth, i.e. the lowest concentration for which the liquid in the well remained clear.
(§7) The assays included both negative (culture medium with no micro-organisms) and positive (culture medium plus diluting solvent plus micro-organism) controls.

[4] = tested on: Propionibacterium acnes NCTC 737; assay: MBC assay; format: cell-based; conditions: P. acnes NCTC 737
Procedure: as §4, §2, §3

[5] = tested on: Porphyromonas gingivalis NCTC 11834; assay: MIC assay; format: cell-based; conditions: NCTC11834
Procedure: (§8) The P. gingivalis strains were cultured and maintained on Wilkins-Chalgren Anaerobe Medium (agar and broth) at pH 7.0; all cultures were incubated anaerobically at 37° C. for 5-7 days.
as §5, §6, §7

[6] = tested on: Porphyromonas gingivalis ATCC 53978; assay: MIC assay; format: cell-based; conditions: ATCC53978
Procedure: as §8, §5, §6, §7

[7] = tested on: Porphyromonas gingivalis ATCC BAA-308; assay: MIC assay; format: cell-based; conditions: ATCCBAA308
Procedure: as §8, §5, §6, §7

S. aureus ATCC 12601 = assay: MIC assay; format: cell-based; conditions: Staphylococcus aureus, ATCC12601
Procedure: (§9) The staphylococci were cultured and maintained on Mueller-Hinton Medium (agar and broth) at pH 7.2; cultures were incubated aerobically at 37° C. for 19-20 hours.
as §5, §6, §7

S. aureus NCTC 12981 = assay: MIC assay; format: cell-based; conditions: Staphylococcus aureus, NCTC12981
Procedure: as §9, §5, §6, §7

[8] = tested on: Staphylococcus hominis ATCC 27844; assay: MIC assay; format: cell-based; conditions: ATCC27844
Procedure: as §9, §5, §6, §7

S. aureus ATCC 25923 = assay: MIC assay; format: cell-based; conditions: Staphylococcus aureus, ATCC25923
Procedure: as §9, §5, §6, §7

[9] = tested on: Staphylococcus simulans ATCC 27848; assay: MIC assay; format: cell-based; conditions: ATCC27848
Procedure: as §9, §5, §6, §7

S. aureus ATCC 12602 = assay: MIC assay; format: cell-based; conditions: Staphylococcus aureus, ATCC12602
Procedure: as §9, §5, §6, §7

[10] = tested on: Staphylococcus auricularis ATCC 33753; assay: MIC assay; format: cell-based; conditions: ATCC33753
Procedure: as §9, §5, §6, §7

S. aureus CPHL EMRSA 16 = assay: MIC assay; format: cell-based; conditions: Staphylococcus aureus
Procedure: as §9, §5, §6, §7

S. aureus CPHL VISA Mu3 = assay: MIC assay; format: cell-based; conditions: Staphylococcus aureus
Procedure: as §9, §5, §6, §7

[11] = tested on: Staphylococcus haemolyticus ATCC 29970; assay: MIC assay; format: cell-based; conditions: ATCC29970
Procedure: as §9, §5, §6, §7

tumour = conditions: compound isolated from Aspergillus fumigatus, believed to be Antioxidant 2246; cited from earlier work
P. acnes PRP-039 = assay: Agar dilution MIC assay; format: cell-based, Propionibacterium acnes; conditions: Cutibacterium acnes, PRP039, resistance phenotype Tet/MLS
Procedure: as §4
(§10) This is a standard international method for quantitatively assessing the antimicrobial activity of a compound in a solid medium. The test compound was prepared to 40× the highest concentration required (e.g. 10 mg/ml for a final concentration of 250 μg/ml) and a series of doubling dilutions were performed in a suitable solvent. A set amount of these antimicrobial stock solutions was then added to molten agar medium (ca. 55° C.), mixed thoroughly, poured into sterile Petri dishes and allowed to cool/set. The culture medium was as described above.
(§11) A Multipoint™ Inoculator (AQS Manufacturing Ltd, UK) was used to inoculate the plates by spotting the inocula onto the surface of the agar, delivering approximately 1 to 2 μl per spot (yielding 10^5 CFU (colony forming units) per spot).
(§12) The plate(s) were then incubated under the conditions described above, following which they were examined visually for signs of bacterial growth. The MIC value was ascertained when there was a marked reduction in, or total loss of, growth on the test plate at the lowest concentration as compared to that of the growth on the control plate.
(§13) The assays were conducted in triplicate and included a positive control (culture medium, diluting solvent and inoculum).

P. acnes PRP-046 = assay: Agar dilution MIC assay; format: cell-based, Propionibacterium acnes; conditions: Cutibacterium acnes, PRP046, resistance phenotype None
Procedure: as §4, §10, §11, §12, §13

P. acnes PRP-101 = assay: Agar dilution MIC assay; format: cell-based, Propionibacterium acnes; conditions: Cutibacterium acnes, PRP101, resistance phenotype Tet/MLS
Procedure: as §4, §10, §11, §12, §13

P. acnes PRP-002 = assay: Agar dilution MIC assay; format: cell-based, Propionibacterium acnes; conditions: Cutibacterium acnes, PRP002, resistance phenotype Tet/MLS
Procedure: as §4, §10, §11, §12, §13

P. acnes PRP-010 = assay: Agar dilution MIC assay; format: cell-based, Propionibacterium acnes; conditions: Cutibacterium acnes, PRP010, resistance phenotype MLSK
Procedure: as §4, §10, §11, §12, §13

## Cc1cc(Cc2cc(C)cc(C(C)(C)C)c2O)c(O)c(C(C)(C)C)c1 [AO 2246, 2,2′-methylene-bis(4-methyl-6-tert-butylphenol)]
[1]
  MIC/MBC Ratio: 0.5
[1]; ATCC25175
  MBC: 62.5 µg/mL (≈ 184 µM)
[2]
  MIC/MBC Ratio: 0.25
[2]; ATCC35668
  MBC: 31.2 µg/mL (≈ 91.8 µM)
[3]
  MIC: 3.9 µg/mL (≈ 11.5 µM)
[4]; Cutibacterium acnes, NCTC737
  MBC: 15.6 µg/mL (≈ 45.8 µM)
[4]
  MIC/MBC Ratio: 0.25
[5]
  MIC: 3.9 µg/mL (≈ 11.5 µM)
[6]
  MIC: 0.98 µg/mL (≈ 2.88 µM)
[7]
  MIC: 3.9 µg/mL (≈ 11.5 µM)
S. aureus ATCC 12601
  MIC: 1.95 µg/mL (≈ 5.73 µM)
S. aureus NCTC 12981
  MIC: 1.95 µg/mL (≈ 5.73 µM)
[8]
  MIC: 7.8 µg/mL (≈ 22.9 µM)
S. aureus ATCC 25923
  MIC: 7.8 µg/mL (≈ 22.9 µM)
[9]
  MIC: 15.6 µg/mL (≈ 45.8 µM)
S. aureus ATCC 12602
  MIC: 1.95 µg/mL (≈ 5.73 µM)
[10]
  MIC: 1.95 µg/mL (≈ 5.73 µM)
S. aureus CPHL EMRSA 16
  MIC: 1.95 µg/mL (≈ 5.73 µM)
S. aureus CPHL VISA Mu3
  MIC: 1.95 µg/mL (≈ 5.73 µM)
[11]
  MIC: 3.9 µg/mL (≈ 11.5 µM)
tumour
  anti-tumour activity: anti-tumour activity
P. acnes PRP-039
  MIC: 3.9 µg/mL (≈ 11.5 µM)
P. acnes PRP-046
  MIC: 3.9 µg/mL (≈ 11.5 µM)
P. acnes PRP-101
  MIC: 3.9 µg/mL (≈ 11.5 µM)
P. acnes PRP-002
  MIC: 3.9 µg/mL (≈ 11.5 µM)
P. acnes PRP-010
  MIC: 3.9 µg/mL (≈ 11.5 µM)
